For 17 compounds, EC50 results are on record in patent US9175003B2, “Substituted azoanthracene derivatives and intermediates for preparation thereof” (TransTech Pharma, LLC, priority 2009, dated 2015).

The experiment concerns the target human GLP-1 receptor (Homo sapiens (Human), UniProt P43220). To be noted: read-out: Mean EC50; cAMP, HTRF detection, 30 min at 37° C., HEK-293 cells expressing cloned human GLP-1 receptor. (In general: In TR-FRET formats the signal depends on donor and acceptor labels being close together.)

Chain of human GLP-1 receptor (P43220 24-463): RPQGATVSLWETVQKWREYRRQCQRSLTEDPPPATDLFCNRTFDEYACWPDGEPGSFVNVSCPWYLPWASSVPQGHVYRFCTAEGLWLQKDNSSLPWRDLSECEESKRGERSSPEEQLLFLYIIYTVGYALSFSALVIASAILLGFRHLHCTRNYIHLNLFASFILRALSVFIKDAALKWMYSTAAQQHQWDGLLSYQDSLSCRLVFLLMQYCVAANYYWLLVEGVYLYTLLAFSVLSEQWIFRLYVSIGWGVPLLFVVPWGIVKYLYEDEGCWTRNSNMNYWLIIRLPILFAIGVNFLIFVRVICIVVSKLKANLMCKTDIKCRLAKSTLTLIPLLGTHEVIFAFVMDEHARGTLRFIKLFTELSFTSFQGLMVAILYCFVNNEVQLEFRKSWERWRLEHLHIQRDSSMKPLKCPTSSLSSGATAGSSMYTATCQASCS

With `Cc1nc(C(=O)N2Cc3cc4c(cc3C[C@H]2C(=O)N[C@@H](Cc2ccc(-c3ccnc(C)c3C)cc2)C(=O)O)OC[C@H](c2ccc(OCCc3ccc(Cl)cc3)cc2)O4)c(C)o1` [Example 371, (S)-2-{[(3S,8S)-3-{4-[2-(4-Chloro-phenyl)-ethoxy]-phenyl}-7-(2,5-dimethyl-oxazole-4-carbonyl)-2,3,6,7,8,9-hexahydro-[1,4]dioxino[2,3-g]isoquinoline-8-carbonyl]-amino}-3-[4-(2,3-dimethyl-pyridin-4-yl)-phenyl]-propionic acid], the EC50 (usually the concentration giving half of the maximal effect) is 0.036 µM.
Then `Cc1nc(C(=O)N2Cc3cc4c(cc3C[C@H]2C(=O)N[C@@H](Cc2ccc(-c3ccnc(C)c3C)cc2)C(=O)O)OC[C@H](c2ccc(O[C@H]3CC[C@H](C(C)(C)C)CC3)cc2)O4)c(C)o1` [Example 372, (S)-2-{[(3S,8S)-3-[4-(trans-4-tert-Butyl-cyclohexyloxy)-phenyl]-7-(2,5-dimethyl-oxazole-4-carbonyl)-2,3,6,7,8,9-hexahydro-[1,4]dioxino[2,3-g]isoquinoline-8-carbonyl]-amino}-3-[4-(2,3-dimethyl-pyridin-4-yl)-phenyl]-propionic acid], with 0.064 µM.
On to `CC[C@H]1CC[C@H](Oc2ccc([C@H]3COc4cc5c(cc4O3)CN(C(=O)c3nc(C)oc3C)[C@H](C(=O)N[C@@H](Cc3ccc(-c4ccnc(C)c4C)cc3)C(=O)O)C5)cc2)CC1` [Example 373, (S)-2-({(3S,8S)-7-(2,5-Dimethyl-oxazole-4-carbonyl)-3-[-4-(trans-4-ethyl-cyclohexyloxy)-phenyl]-2,3,6,7,8,9-hexahydro-[1,4]dioxino[2,3-g]isoquinoline-8-carbonyl}-amino)-3-[4-(2,3-dimethyl-pyridin-4-yl)-phenyl]-propionic acid], for which the EC50 is 0.187 µM.
Then `Cc1nc(C(=O)N2Cc3cc4c(cc3C[C@H]2C(=O)N[C@@H](Cc2ccc(-c3ccnc(C)c3C)cc2)C(=O)O)OC[C@H](c2ccc(OC3CCC(Cl)CC3)cc2)O4)c(C)o1` (stereo partly drawn) [Example 375, (S)-2-{[(3S,8S)-3-[4-(4-Chloro-cyclohexyloxy)-phenyl]-7-(2,5-dimethyl-oxazole-4-carbonyl)-2,3,6,7,8,9-hexahydro-[1,4]dioxino[2,3-g]isoquinoline-8-carbonyl]-amino}-3-[4-(2,3-dimethyl-pyridin-4-yl)-phenyl]-propionic acid], with 0.05 µM; and `Cc1nc(C(=O)N2Cc3cc4c(cc3C[C@H]2C(=O)N[C@@H](Cc2ccc(-c3ccnc(C)c3C)cc2)C(=O)O)OC[C@H](c2ccc(OCc3cncc(Cl)c3)cc2)O4)c(C)o1` [Example 376, (S)-2-{[(3S,8S)-3-[4-(5-Chloro-pyridin-3-ylmethoxy)-phenyl]-7-(2,5-dimethyl-oxazole-4-carbonyl)-2,3,6,7,8,9-hexahydro-[1,4]dioxino[2,3-g]isoquinoline-8-carbonyl]-amino}-3-[4-(2,3-dimethyl-pyridin-4-yl)-phenyl]-propionic acid], with 0.038 µM; and `Cc1nc(C(=O)N2Cc3cc4c(cc3C[C@H]2C(=O)N[C@@H](Cc2ccc(-c3ccnc(C)c3C)cc2)C(=O)O)OC[C@H](c2ccc(OCCc3ccccc3)cc2)O4)c(C)o1` [Example 377, (S)-2-{[(3S,8S)-7-(2,5-Dimethyl-oxazole-4-carbonyl)-3-(4-phenethyloxy-phenyl)-2,3,6,7,8,9-hexahydro-[1,4]dioxino[2,3-g]isoquinoline-8-carbonyl]-amino}-3-[4-(2,3-dimethyl-pyridin-4-yl)-phenyl]-propionic acid], with 0.049 µM.
Regarding `Cc1nc(C(=O)N2Cc3cc4c(cc3C[C@H]2C(=O)N[C@@H](Cc2ccc(-c3ccnc(C)c3C)cc2)C(=O)O)OC[C@H](c2ccc(OCC3(c5ccc(Cl)cc5)CC3)cc2)O4)c(C)o1` [Example 378, (S)-2-{[(3S,8S)-3-{4-[1-(4-Chloro-phenyl)-cyclopropylmethoxy]-phenyl}-7-(2,5-dimethyl-oxazole-4-carbonyl)-2,3,6,7,8,9-hexahydro-[1,4]dioxino[2,3-g]isoquinoline-8-carbonyl]-amino}-3-[4-(2,3-dimethyl-pyridin-4-yl)-phenyl]-propionic acid], the half-maximal effective concentration (EC50) worked out at 0.282 µM.
Next, `Cc1nc(C(=O)N2Cc3cc4c(cc3C[C@H]2C(=O)N[C@@H](Cc2ccc(-c3ccnc(C)c3C)cc2)C(=O)O)OC[C@H](c2ccc(OCC3CCCC3)cc2)O4)c(C)o1` [Example 379, (S)-2-{[(3S,8S)-3-(4-cyclopentylmethoxy-phenyl)-7-(2,5-dimethyl-oxazole-4-carbonyl)-2,3,6,7,8,9-hexahydro-[1,4]dioxino[2,3-g]isoquinoline-8-carbonyl]-amino}-3-[4-(2,3-dimethyl-pyridin-4-yl)-phenyl]-propionic acid]: 0.152 µM; `Cc1nc(C(=O)N2Cc3cc4c(cc3C[C@H]2C(=O)N[C@@H](Cc2ccc(-c3ccnc(C)c3C)cc2)C(=O)O)OC[C@H](c2ccc(OCCC(C)(C)C)cc2)O4)c(C)o1` [Example 380, (S)-2-{[(3S,8S)-3-[4-(3,3-dimethyl-butoxy)-phenyl]-7-(2,5-dimethyl-oxazole-4-carbonyl)-2,3,6,7,8,9-hexahydro-[1,4]dioxino[2,3-g]isoquinoline-8-carbonyl]-amino}-3-[4-(2,3-dimethyl-pyridin-4-yl)-phenyl]-propionic acid]: 0.213 µM; `Cc1nc(C(=O)N2Cc3cc4c(cc3C[C@H]2C(=O)N[C@@H](Cc2ccc(-c3ccnc(C)c3C)cc2)C(=O)O)OC[C@H](c2ccc(O[C@H]3CC[C@@H](C)CC3)cc2)O4)c(C)o1` [Example 381, (S)-2-({(3S,8S)-7-(2,5-Dimethyl-oxazole-4-carbonyl)-3-[4-(cis-4-methyl-cyclohexyloxy)-phenyl]-2,3,6,7,8,9-hexahydro-[1,4]dioxino[2,3-g]isoquinoline-8-carbonyl}-amino)-3-[4-(2,3-dimethyl-pyridin-4-yl)-phenyl]-propionic acid]: 0.313 µM.
As to `Cc1nc(C(=O)N2Cc3cc4c(cc3C[C@H]2C(=O)N[C@@H](Cc2ccc(-c3ccnc(C)c3C)cc2)C(=O)O)OC[C@H](c2ccc(O[C@H]3CC[C@H](C)CC3)cc2)O4)c(C)o1` [Example 382, (S)-2-({(3S,8S)-7-(2,5-Dimethyl-oxazole-4-carbonyl)-3-[4-(trans-4-methyl-cyclohexyloxy)-phenyl]-2,3,6,7,8,9-hexahydro-[1,4]dioxino[2,3-g]isoquinoline-8-carbonyl}-amino)-3-[4-(2,3-dimethyl-pyridin-4-yl)-phenyl]-propionic acid], the EC50 was found to be 0.106 µM.
For `Cc1nc(C(=O)N2Cc3cc4c(cc3C[C@H]2C(=O)N[C@@H](Cc2ccc(-c3ccnc(C)c3C)cc2)C(=O)O)OC[C@H](c2ccc(OCc3ccc(Cl)cc3Cl)cc2)O4)c(C)o1` [Example 383, (S)-2-{[(3S,8S)-3-[4-(2,4-dichloro-benzyloxy)-phenyl]-7-(2,5-dimethyl-oxazole-4-carbonyl)-2,3,6,7,8,9-hexahydro-[1,4]dioxino[2,3-g]isoquinoline-8-carbonyl]-amino}-3-[4-(2,3-dimethyl-pyridin-4-yl)-phenyl]-propionic acid], the concentration giving a half-maximal response (EC50) stood at 0.138 µM.
Then `Cc1nc(C(=O)N2Cc3cc4c(cc3C[C@H]2C(=O)N[C@@H](Cc2ccc(-c3ccnc(C)c3C)cc2)C(=O)O)OC[C@H](c2ccc(OCc3cc(Cl)cc(Cl)c3)cc2)O4)c(C)o1` [Example 384, (S)-2-{[(3S,8S)-3-[4-(3,5-Dichloro-benzyloxy)-phenyl]-7-(2,5-dimethyl-oxazole-4-carbonyl)-2,3,6,7,8,9-hexahydro-[1,4]dioxino[2,3-g]isoquinoline-8-carbonyl]-amino}-3-[4-(2,3-dimethyl-pyridin-4-yl)-phenyl]-propionic acid], with 0.026 µM; and `Cc1nc(C(=O)N2Cc3cc4c(cc3C[C@H]2C(=O)N[C@@H](Cc2ccc(-c3ccnc(C)c3C)cc2)C(=O)O)OC[C@H](c2ccc(O[C@H]3CC[C@@H](C(C)(C)C)CC3)cc2)O4)c(C)o1` [Example 386, (S)-2-{[(3S,8S)-3-[4-(cis-4-tert-Butyl-cyclohexyloxy)-phenyl]-7-(2,5-dimethyl-oxazole-4-carbonyl)-2,3,6,7,8,9-hexahydro-[1,4]dioxino[2,3-g]isoquinoline-8-carbonyl]-amino}-3-[4-(2,3-dimethyl-pyridin-4-yl)-phenyl]-propionic acid], with 0.269 µM; and `Cc1nc(C(=O)N2Cc3cc4c(cc3C[C@H]2C(=O)N[C@@H](Cc2ccc(-c3ccnc(C)c3C)cc2)C(=O)O)OC[C@H](c2ccc(OCCc3ccc(Cl)c(Cl)c3)cc2)O4)c(C)o1` [Example 387, (S)-2-{[(3S,8S)-3-{4-[2-(3,4-Dichloro-phenyl)-ethoxy]-phenyl}-7-(2,5-dimethyl-oxazole-4-carbonyl)-2,3,6,7,8,9-hexahydro-[1,4]dioxino[2,3-g]isoquinoline-8-carbonyl]-amino}-3-[4-(2,3-dimethyl-pyridin-4-yl)-phenyl]-propionic acid], with 0.034 µM.
Regarding `Cc1nccc(-c2ccc(C[C@H](NC(=O)[C@@H]3Cc4cc5c(cc4CN3C(=O)N[C@H](C)c3ccccc3)O[C@@H](c3ccc(OCCc4ccc(Cl)cc4)cc3)CO5)C(=O)O)cc2)c1C` [Example 388, (S)-2-{[(3S,8S)-3-{4-[2-(4-Chloro-phenyl)-ethoxy]-phenyl}-7-((R)-1-phenyl-ethylcarbamoyl)-2,3,6,7,8,9-hexahydro-[1,4]dioxino[2,3-g]isoquinoline-8-carbonyl]-amino}-3-[4-(2,3-dimethyl-pyridin-4-yl)-phenyl]-propionic acid], the half-maximal effective concentration (EC50) is 0.179 µM.
Then `Cc1nccc(-c2ccc(C[C@H](NC(=O)[C@@H]3Cc4cc5c(cc4CN3C(=O)N[C@H](C)c3ccccc3)O[C@@H](c3ccc(O[C@H]4CC[C@H](C(C)(C)C)CC4)cc3)CO5)C(=O)O)cc2)c1C` [Example 389, (S)-2-{[(3S,8S)-3-[4-(trans-4-tert-Butyl-cyclohexyloxy)-phenyl]-7-((R)-1-phenyl-ethylcarbamoyl)-2,3,6,7,8,9-hexahydro-[1,4]dioxino[2,3-g]isoquinoline-8-carbonyl]-amino}-3-[4-(2,3-dimethyl-pyridin-4-yl)-phenyl]-propionic acid], with 0.191 µM.
